The target in test [1] is T1, Apoptotic protease-activating factor 1 (Homo sapiens, UniProt O14727).
T1 sequence (O14727 whole entry): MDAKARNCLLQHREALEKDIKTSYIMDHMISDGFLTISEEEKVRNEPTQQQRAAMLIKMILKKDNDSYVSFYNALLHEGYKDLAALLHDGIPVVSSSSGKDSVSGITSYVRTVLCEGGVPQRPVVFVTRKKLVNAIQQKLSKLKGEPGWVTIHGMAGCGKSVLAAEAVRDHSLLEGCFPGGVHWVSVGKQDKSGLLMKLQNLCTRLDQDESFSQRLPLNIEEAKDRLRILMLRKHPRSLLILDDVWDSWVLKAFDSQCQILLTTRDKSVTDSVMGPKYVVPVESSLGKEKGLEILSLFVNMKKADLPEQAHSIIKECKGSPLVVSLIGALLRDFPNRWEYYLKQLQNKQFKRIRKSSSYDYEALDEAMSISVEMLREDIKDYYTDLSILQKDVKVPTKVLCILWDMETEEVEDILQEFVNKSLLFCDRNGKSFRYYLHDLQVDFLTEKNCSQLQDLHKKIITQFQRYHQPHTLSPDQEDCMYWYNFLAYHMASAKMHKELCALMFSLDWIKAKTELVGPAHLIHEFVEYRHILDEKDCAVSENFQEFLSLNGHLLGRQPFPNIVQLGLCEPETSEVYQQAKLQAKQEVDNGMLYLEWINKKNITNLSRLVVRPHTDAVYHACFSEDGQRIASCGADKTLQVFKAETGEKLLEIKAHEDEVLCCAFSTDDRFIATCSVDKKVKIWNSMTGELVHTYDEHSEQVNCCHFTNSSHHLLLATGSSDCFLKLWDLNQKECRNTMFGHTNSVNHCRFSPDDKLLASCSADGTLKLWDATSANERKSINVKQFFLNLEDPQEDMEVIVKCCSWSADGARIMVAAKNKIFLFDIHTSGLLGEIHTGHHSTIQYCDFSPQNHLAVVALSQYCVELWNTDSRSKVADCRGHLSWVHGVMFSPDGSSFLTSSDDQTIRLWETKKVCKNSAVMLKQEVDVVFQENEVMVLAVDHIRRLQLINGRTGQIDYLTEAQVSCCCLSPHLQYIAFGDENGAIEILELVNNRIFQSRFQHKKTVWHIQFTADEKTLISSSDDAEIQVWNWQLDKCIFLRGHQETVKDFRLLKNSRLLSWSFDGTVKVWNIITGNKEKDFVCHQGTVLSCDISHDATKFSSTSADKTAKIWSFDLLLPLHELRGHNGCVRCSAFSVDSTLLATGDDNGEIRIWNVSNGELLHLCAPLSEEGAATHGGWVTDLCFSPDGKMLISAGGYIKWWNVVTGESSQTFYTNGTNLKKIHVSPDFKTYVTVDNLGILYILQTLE
It counts as functional.

The target of test [2] is Megakaryocyte-associated tyrosine-protein kinase (Homo sapiens, UniProt P42679). It counts as functional.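 Note: affinity measured as one member of a kinase panel (Navigating the Kinome) against MATK.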
Test [3] deals with RAC-gamma serine/threonine-protein kinase (Homo sapiens, UniProt Q9Y243). It counts as functional.
Chain of RAC-gamma serine/threonine-protein kinase (Q9Y243 whole entry): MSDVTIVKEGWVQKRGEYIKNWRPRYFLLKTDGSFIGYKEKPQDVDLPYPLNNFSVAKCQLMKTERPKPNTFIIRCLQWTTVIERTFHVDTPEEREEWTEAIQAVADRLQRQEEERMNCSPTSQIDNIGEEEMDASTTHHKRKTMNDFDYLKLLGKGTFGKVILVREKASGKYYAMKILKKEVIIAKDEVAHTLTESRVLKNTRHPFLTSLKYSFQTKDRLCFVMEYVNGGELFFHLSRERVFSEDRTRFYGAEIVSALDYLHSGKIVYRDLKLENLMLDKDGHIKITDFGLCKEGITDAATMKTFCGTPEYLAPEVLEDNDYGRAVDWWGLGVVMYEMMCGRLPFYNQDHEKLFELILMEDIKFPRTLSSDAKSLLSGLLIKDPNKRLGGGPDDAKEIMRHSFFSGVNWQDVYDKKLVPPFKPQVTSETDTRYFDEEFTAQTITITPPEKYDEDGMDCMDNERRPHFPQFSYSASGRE
The target in test [4] is Proto-oncogene tyrosine-protein kinase receptor Ret (Homo sapiens, UniProt P07949). Format: functional.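 Note: measured within a kinome-wide profiling panel, RET as the panel member.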
Chain of Proto-oncogene tyrosine-protein kinase receptor Ret (P07949 whole entry): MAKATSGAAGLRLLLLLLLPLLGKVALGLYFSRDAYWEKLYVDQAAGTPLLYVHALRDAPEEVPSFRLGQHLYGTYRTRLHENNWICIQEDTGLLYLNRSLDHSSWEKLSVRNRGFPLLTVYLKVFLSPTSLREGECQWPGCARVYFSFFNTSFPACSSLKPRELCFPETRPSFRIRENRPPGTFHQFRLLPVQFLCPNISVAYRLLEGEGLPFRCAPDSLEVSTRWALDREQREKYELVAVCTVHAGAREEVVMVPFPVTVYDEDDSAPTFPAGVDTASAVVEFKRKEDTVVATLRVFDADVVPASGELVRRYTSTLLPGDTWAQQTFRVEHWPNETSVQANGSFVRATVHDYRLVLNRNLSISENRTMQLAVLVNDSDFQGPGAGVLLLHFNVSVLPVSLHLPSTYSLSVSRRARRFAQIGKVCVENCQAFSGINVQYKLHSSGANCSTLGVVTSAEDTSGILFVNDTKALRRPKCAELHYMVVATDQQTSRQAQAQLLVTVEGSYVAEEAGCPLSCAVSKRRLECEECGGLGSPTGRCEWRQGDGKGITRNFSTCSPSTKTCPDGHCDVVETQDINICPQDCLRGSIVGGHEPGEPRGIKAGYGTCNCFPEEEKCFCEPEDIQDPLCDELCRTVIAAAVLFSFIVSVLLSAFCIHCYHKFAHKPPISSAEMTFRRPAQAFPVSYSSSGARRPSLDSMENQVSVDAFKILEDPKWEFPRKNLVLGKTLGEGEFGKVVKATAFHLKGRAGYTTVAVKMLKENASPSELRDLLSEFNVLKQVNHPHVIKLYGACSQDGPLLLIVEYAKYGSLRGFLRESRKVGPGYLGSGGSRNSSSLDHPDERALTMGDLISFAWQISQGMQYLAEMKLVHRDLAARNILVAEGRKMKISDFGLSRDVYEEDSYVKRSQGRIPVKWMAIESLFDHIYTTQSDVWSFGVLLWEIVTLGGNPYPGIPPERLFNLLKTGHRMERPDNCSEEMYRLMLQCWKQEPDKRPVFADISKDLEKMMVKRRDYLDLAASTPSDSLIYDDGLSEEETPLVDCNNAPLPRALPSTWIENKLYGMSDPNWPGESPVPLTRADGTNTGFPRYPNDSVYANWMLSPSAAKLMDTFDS
Test [5] concerns the target Tyrosine-protein kinase HCK (Homo sapiens, UniProt P08631). As to the kind of experiment: Navigating the Kinome. Panel member name: HCK. It counts as functional.
Test [6] concerns the target Cyclin-dependent kinase 2 (Homo sapiens, UniProt P24941). Format: functional.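 Note: CDK2 measured as one member of a broad kinome profiling panel.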
Test [7] concerns the target MAP kinase-activated protein kinase 2 (Homo sapiens, UniProt P49137). Format: functional.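 Note: measured as one member of a kinome-wide kinase panel.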
Test [8] concerns the target Serine/threonine-protein kinase TAO1 (Homo sapiens, UniProt Q7L7X3). It counts as functional.
For test [9], the target named is Calcium/calmodulin-dependent protein kinase kinase 2 (Homo sapiens, UniProt Q96RR4). As to the kind of experiment: Navigating the Kinome. Panel member name: CAMKK2. It counts as functional.
For test [10], the target named is Protein kinase C iota type (Homo sapiens, UniProt P41743). It counts as functional.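 Note: measured within a kinome-wide kinase panel, PRKCI as panel member.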
Chain of Protein kinase C iota type (P41743 whole entry): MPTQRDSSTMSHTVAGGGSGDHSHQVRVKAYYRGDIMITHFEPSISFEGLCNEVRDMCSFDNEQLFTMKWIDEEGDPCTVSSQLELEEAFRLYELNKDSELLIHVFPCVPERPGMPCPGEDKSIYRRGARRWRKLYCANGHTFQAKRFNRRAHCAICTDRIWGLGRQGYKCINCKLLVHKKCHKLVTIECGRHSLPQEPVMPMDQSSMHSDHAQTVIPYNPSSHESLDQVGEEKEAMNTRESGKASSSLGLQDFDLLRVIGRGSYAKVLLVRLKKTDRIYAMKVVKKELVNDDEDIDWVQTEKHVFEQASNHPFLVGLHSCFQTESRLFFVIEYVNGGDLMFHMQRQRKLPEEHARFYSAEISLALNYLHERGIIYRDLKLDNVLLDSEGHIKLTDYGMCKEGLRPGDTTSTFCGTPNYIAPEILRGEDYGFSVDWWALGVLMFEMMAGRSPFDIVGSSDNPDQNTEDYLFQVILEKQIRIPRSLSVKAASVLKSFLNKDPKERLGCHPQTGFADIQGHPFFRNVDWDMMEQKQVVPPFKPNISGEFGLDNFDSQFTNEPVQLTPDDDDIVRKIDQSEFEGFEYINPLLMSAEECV
Test [11] concerns the target Vascular endothelial growth factor receptor 3 (Homo sapiens, UniProt P35916). It counts as functional.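 Note: value from a kinome-wide profiling panel, with FLT4 as the panel member.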
Test [12] has as its target Rho-associated protein kinase 1 (Homo sapiens, UniProt Q13464). It counts as functional.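 Note: measured within a broad kinome-wide panel profiling many kinases.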
In test [13] the target is Calcium/calmodulin-dependent protein kinase type 1 (Homo sapiens, UniProt Q14012). It counts as functional.
Test [14] has as its target Tyrosine-protein kinase Fyn (Homo sapiens, UniProt P06241). Format: functional.
Test [15] addresses Homeodomain-interacting protein kinase 4 (Homo sapiens, UniProt Q8NE63). It counts as functional.
For test [16], the target named is Fibroblast growth factor receptor 3 (Homo sapiens, UniProt P22607). It counts as functional.
Chain of Fibroblast growth factor receptor 3 (P22607 whole entry): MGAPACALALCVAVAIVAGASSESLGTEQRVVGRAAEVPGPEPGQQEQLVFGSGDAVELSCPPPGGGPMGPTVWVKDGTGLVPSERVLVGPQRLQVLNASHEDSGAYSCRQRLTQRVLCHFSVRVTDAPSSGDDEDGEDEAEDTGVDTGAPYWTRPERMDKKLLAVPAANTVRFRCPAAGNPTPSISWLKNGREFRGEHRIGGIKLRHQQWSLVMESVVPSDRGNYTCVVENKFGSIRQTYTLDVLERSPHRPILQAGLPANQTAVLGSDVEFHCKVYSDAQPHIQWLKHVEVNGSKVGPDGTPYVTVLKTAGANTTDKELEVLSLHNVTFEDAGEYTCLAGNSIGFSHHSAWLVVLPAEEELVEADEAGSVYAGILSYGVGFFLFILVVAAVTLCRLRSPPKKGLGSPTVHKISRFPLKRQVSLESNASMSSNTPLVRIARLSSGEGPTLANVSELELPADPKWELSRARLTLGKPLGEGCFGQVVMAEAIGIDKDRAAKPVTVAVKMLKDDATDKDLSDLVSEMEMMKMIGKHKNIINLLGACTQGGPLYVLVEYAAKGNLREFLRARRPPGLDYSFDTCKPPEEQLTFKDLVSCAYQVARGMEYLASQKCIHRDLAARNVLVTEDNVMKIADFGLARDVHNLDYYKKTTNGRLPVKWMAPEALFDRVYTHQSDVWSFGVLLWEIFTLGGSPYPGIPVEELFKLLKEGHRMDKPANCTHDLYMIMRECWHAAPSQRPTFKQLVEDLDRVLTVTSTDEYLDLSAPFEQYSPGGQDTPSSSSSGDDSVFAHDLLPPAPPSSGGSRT
For test [17], the target named is T2, Neuropeptide Y receptor type 2 (Homo sapiens, UniProt P49146).
T2 sequence (P49146 whole entry): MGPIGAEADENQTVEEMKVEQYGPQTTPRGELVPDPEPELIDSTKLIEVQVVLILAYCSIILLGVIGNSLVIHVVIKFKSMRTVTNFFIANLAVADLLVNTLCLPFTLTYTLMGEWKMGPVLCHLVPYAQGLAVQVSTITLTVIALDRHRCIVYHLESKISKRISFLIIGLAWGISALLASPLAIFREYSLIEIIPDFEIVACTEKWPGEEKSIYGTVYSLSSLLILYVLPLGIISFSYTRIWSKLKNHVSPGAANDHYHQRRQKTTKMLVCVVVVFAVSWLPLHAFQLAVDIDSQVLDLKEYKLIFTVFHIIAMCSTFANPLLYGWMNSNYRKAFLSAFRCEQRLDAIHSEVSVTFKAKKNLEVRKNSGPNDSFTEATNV
Briefly: Fluorescence-based counterscreen for agonists of NPY-Y1: cell-based high-throughput dose response assay for agonists of NPY-Y2. It counts as functional.

The target of test [18] is T3, Mannose-6-phosphate isomerase (Homo sapiens, UniProt P34949).
T3 sequence (P34949 whole entry): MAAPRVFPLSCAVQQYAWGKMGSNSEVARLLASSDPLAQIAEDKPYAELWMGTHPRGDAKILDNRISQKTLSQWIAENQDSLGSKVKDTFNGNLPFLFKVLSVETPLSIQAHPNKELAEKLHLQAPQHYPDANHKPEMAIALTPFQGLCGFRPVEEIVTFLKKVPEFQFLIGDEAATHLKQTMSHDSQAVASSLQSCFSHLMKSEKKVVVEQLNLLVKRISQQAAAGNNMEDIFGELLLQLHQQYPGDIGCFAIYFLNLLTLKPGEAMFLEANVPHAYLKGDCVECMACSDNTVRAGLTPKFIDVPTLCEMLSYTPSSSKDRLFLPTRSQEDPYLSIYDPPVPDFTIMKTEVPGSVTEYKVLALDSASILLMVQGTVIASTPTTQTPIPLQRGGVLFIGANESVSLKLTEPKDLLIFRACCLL
Briefly: human PMI inhibitors, high substrate, primary screen, biochemical, fluorescence intensity, high mannose 6-phosphate (AID 1220).

These results are taken from ChEMBL document CHEMBL1201862, “PubChem BioAssay data set” (2004).

The term IC50 denotes the midpoint of a concentration-inhibition curve. A word on the Ki: it is a dissociation constant, usually derived from enzyme kinetics or from competition with a known ligand. What is called EC50 is the concentration giving half of the maximal effect.

The source made the active and inactive calls.

Chain of Tyrosine-protein kinase HCK (P08631 whole entry): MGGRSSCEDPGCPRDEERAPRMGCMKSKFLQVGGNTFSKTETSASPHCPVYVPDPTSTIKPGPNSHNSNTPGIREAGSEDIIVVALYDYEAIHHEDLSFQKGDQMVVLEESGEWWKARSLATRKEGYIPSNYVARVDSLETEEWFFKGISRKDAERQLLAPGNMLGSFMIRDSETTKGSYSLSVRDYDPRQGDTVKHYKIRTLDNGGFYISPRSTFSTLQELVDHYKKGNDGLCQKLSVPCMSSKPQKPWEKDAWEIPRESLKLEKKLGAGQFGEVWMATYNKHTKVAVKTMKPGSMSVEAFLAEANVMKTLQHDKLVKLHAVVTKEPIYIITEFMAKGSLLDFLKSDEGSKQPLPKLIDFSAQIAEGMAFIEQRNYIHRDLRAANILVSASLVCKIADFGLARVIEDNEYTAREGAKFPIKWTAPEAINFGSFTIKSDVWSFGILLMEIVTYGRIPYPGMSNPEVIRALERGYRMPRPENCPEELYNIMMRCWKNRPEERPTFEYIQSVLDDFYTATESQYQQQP
Chain of Serine/threonine-protein kinase TAO1 (Q7L7X3 whole entry): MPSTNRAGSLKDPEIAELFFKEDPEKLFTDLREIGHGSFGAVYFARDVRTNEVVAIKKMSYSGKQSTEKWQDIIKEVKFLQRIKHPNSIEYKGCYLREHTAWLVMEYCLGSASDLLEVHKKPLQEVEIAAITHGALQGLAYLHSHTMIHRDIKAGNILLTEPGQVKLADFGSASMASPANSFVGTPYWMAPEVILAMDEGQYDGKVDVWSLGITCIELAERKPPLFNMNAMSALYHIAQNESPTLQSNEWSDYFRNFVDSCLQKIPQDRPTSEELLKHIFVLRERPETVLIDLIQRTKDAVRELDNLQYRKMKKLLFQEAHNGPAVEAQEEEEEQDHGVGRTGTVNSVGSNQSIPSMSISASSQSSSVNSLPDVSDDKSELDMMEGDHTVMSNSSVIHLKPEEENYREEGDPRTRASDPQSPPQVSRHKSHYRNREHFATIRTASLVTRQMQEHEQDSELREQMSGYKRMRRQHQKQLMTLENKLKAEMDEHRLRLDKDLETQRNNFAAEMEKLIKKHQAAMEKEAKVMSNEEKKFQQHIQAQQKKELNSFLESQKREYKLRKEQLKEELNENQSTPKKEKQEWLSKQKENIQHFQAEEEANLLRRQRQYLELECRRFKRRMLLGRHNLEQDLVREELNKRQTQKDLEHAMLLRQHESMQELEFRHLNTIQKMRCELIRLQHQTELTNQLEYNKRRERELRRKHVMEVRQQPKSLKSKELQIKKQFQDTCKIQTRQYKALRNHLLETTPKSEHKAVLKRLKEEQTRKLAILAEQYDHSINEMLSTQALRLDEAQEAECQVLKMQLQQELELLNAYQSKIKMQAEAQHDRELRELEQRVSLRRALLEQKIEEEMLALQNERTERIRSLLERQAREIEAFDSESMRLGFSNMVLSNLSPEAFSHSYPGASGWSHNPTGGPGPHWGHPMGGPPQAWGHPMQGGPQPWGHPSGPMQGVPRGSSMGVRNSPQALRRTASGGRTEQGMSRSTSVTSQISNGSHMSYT
Chain of MAP kinase-activated protein kinase 2 (P49137 whole entry): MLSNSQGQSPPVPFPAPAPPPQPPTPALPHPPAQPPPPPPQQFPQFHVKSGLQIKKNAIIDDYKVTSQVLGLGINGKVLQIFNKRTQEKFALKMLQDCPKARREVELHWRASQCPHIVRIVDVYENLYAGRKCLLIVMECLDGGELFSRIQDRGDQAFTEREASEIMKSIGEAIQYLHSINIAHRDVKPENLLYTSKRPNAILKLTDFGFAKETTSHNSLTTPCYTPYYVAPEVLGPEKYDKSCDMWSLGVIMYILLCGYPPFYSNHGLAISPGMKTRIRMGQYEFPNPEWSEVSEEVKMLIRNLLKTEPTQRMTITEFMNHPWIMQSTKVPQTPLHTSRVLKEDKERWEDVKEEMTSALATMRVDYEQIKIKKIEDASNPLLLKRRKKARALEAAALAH

`CCOC(=O)c1c(NS(=O)(=O)c2ccccc2)n(CCCOC)c2nc3ccccc3nc12`: the IC50 in [1] was 24200 nM (active).
Regarding `OC1CCC(Nc2cc(Cl)nc(-c3c[nH]c4ncccc34)n2)CC1` (stereo not drawn), the Ki in test [2] is 1580 nM (active); in test [3], > 6310 nM (inactive); in test [4], > 2510 nM (inactive); in test [5], > 3160 nM (inactive); in test [6] it was 251 nM (active); in test [7], 1260 nM (active). Besides, the Ki in [8] is 2510 nM (active); in test [9] it was > 2510 nM (inactive); in test [10], 398 nM (active); in test [11], 63.1 nM (active); in [12] it was 31.6 nM (active); in test [13], > 1580 nM (inactive). In addition, the Ki in [14] is > 794 nM (inactive); in [15], 1000 nM (active); in test [16], > 2000 nM (inactive).
On to `COCC/N=c1\scc(-c2cccs2)n1/N=C/c1ccc(O)c(O)c1O`, for which the 50% effective concentration (EC50) in test [17] is 19300 nM (not active). Also, the IC50 in test [18] was 23800 nM (active).
